Results on one compound are retold here after US20110251135A1, “INHIBITORS OF PERITONEAL SEEDING OF CANCER CELLS” (University of Utah Research Foundation, priority 2008, published 2011).

Values joined by “and” are separate entries in the source; they are usually repeats but may differ in a detail not shown here. Equal entries are not always repeated. Some results are limits rather than exact numbers.

The test system of assay [1] is HCT-116 xenografts. As to the kind of experiment: Subcutaneous colon cancer xenograft in athymic mice. It is filed as in vivo, mouse. Particulars: HCT-116 subcutaneous xenografts; BAY 11-7085 1 mg/kg twice weekly for 28 days vs DMSO. How it is done: (§1) DLD-1, HCT-116, and HT-29 cells were cultured for 6 days in soft agar in the presence of DMSO (control), 10 μM BAY 11-7082, or 10 μM BAY 11-7085. The data points represent the means of colony counts per field (20×) performed in 5 different regions of the culture dishes. The data shown represent a typical result of two separate experiments. FIG. 2B and FIG. 2C are graphs that show athymic mice received subcutaneous injections of HT-29 (FIG. B) or HCT-116 (FIG. C) cells, followed by […] of BAY 11-7085 (dark bars) or DMSO (white bars) intraperitoneally twice weekly. The bars represent the 25-75% ranges of the tumor volumes and the horizontal lines in the bars are the medians. Using the Kruskal-Wallace statistical test to compare the median tumor volumes between BAY 11-7085 and DMSO yielded a p-value of 0.005 for HT-29 cells but >0.05 for HCT-116 cells.
(§2) HT-29 and HCT-116 cells were harvested in 0.25% trypsin-PBS-EDTA, washed once in media and PBS, and resuspended in PBS at 1 million cells per 200 μL. One million cells were injected either subcutaneously in the backs or intraperitoneally in 5 week old female nu/nu athymic mice (Charles River Labs). For the mice with subcutaneous tumors, the tumors were allowed to establish themselves for 10 days after which they were randomized to BAY 11-7085 or DMSO. For the mice with intraperitoneal tumors, the mice received DMSO or BAY 11-7085 (5 mg/kg) 24 hours before the cancer cells were injected intraperitoneally. […] Subcutaneous tumor sizes were determined by measuring the length and width with calipers. These studies were approved by the University of Utah Institutional Review Board and Institutional Animal Care and Use Committee and performed in the Animal Resource Center. Mice were euthanized when they experienced a greater than 10% loss in body weight or if they appeared ill. Post-mortem examinations included sectioning of kidney, lung, and liver tissues which were stained with hematoxylin and eosin followed by examination for tissue toxicity/damage by an experienced mouse pathologist (E.J.E.) who was blinded to therapy.
(§3) HCT-116 and HT-29 cell lines were used to generate subcutaneous tumors in athymic female mice. The mice were subsequently randomized to be treated with vehicle (DMSO) alone or BAY 11-7085 […] twice weekly for 28 days.

For assay [2], the system named is HT-29 xenografts. The assay is described as above. It counts as in vivo, mouse. How it is done:
as §1, §2, §3

Assay [3] concerns DLD-1 and HT-29 cells. As to the kind of experiment: Readhesion survival of cells transduced with IκB super-repressor adenovirus (crystal violet). It is filed as cell-based, human. On the procedure:
The percentage of apoptotic cells was determined using the annexin V assay. The data points represent the averages of three experiments; bars, +−.SE. E. DLD-1 and F. HT-29 cells were transduced with an adenovirus containing the IκB super-repressor construct. After 3 days, the cells were transiently suspended and allowed to readhere in the presence of subapoptotic concentrations of BAY 11-7085 or DMSO (vehicle) for 8 hours. The data are expressed as fractions of cells surviving compared with the controls (no adenovirus) and were quantitatively determined by staining the remaining adherent cells with crystal violet.
DLD-1 and HT-29 cells that were approximately 60-70% confluent were transduced with Ad-IκB super-repressor by adding 1-50 μL of purified virus to the cells. […] In a parallel experiment, the transduced cells were resuspended and allowed to readhere in BAY 11-7085 for 8 h. The percentage of surviving (nonapoptotic) cells was determined using crystal violet staining.
The specific involvement of NF-κB in the apoptotic mechanism of BAY 11-7085 was examined specifically. […] The transduced DLD-1 and HT-29 cells were then transiently suspended and allowed to readhere at concentrations of BAY 11-7085 below the in vitro apoptotic threshold (>20 μM) for these cell lines. […] Therefore, inhibition of NF-κB is important to the apoptotic effect of BAY 11-7085 during colon cancer cell readhesion.

Assay [4] relates to HT-29 cells. As to the kind of experiment: Intraabdominal seeding model, intraperitoneal injection of colon cancer cells into athymic mice (21 days). It counts as in vivo, mouse. Particulars: HT-29 IP in athymic mice, BAY 11-7085 (1 mg/kg) IP 24 hours earlier, then twice weekly, n = 6. From the text: FIG. 6 is a group of photographs showing an intraabdominal seeding model. FIGS. 6A, B, C show tumor implants of the liver of three athymic mice 21 days after receiving intraperitoneal injections of HT-29 cells. The mice were pretreated and treated for a total of 21 days with DMSO twice weekly. […] The mouse was pretreated and treated for a total of 21 days with DMSO twice weekly. FIG. 6E is a micrograph showing tumor invasion through the liver capsule. This section was obtained from the tumor implant from the mouse in FIG. 6A. […] FIG. 6G, (liver), FIG. 6H, (abdominal wall), and FIG. 6I, (intestinal) show tumor implants in three athymic mice 21 days after receiving intraabdominal injections of HCT-116 cells. All of the mice were treated with 5 mg/kg of BAY 11-7085 twice weekly.
HT-29 and HCT-116 cells were harvested in 0.25% trypsin-PBS-EDTA, washed once in media and PBS, and resuspended in PBS at 1 million cells per 200 μL. […] Subcutaneous tumor sizes were determined by measuring the length and width with calipers. […]
During colorectal cancer surgery, seeding of the peritoneal cavity by tumor cells with tumor cell implantation of the peritoneal surfaces can occur. Seeding results from the transient suspension of cancer cells, through a loss of adhesion either naturally ro because of surgical displacement, followed by readhesion to other tissues. […]

`CC(C)(C)c1ccc(S(=O)(=O)/C=C/C#N)cc1` [BAY 11-7085, (2E)-3-[4-(tertiarybutylphenyl)sulfonyl]-2-propenenitrile]: the “tumor volumes vs control group” value is “no statistically significant overall difference in the tumor volumes” in assay [1] and “statistically significant overall reduction in the tumor volumes” in assay [2] (HT-29 subcutaneous xenografts, BAY 11-7085 1 mg/kg twice weekly for 28 days vs DMSO). In addition, in assay [2] (athymic mice, compound alone, cell line not given), the “colon cancer xenograft growth” value is “inhibit colon cancer xenograft growth”. In assay [3] (DLD-1 and HT-29 cells during readhesion), the “in vitro apoptotic threshold” value is above 20 µM. In addition, the “apoptotic threshold of BAY 11-7085 compared with the controls” value in assay [3] (DLD-1 and HT-29 expressing IκB super-repressor, readhesion 8 hours) is “significantly lowered the apoptotic threshold”. For the same compound, in assay [4], the “Liver Metastases (mice with metastases/n)” value is “none of the 6 and 0/6”. In addition, the “Peritoneal Metastases (mice with metastases/n)” value in assay [4] was 2 of 6 and 2/6.
